Laboratory results reported in ChEMBL document CHEMBL1140544, “Microbial transformation of three bufadienolides by Nocardia sp. and some insight for the cytotoxic structure-activity relationship (SAR)” (Bioorg Med Chem Lett, 2007).

Legend:
BGC-823 = assay: Cytotoxicity against human BGC823 cells; type: cell-based
HeLa = assay: Cytotoxicity against human HeLa cells; type: functional, cell-based
HepG2 = assay: Cytotoxicity against human HepG2 cells; type: functional, cell-based

Row | SMILES | IC50 (BGC-823) [nM] | IC50 (HeLa) [nM] | IC50 (HepG2) [nM]
1 | CC(=O)O[C@H]1CC[C@@]2(C)[C@H](CC[C@@H]3[C@@H]2CC[C@]2(C)[C@@H](c4ccc(=O)oc4)[C@@H](OC(C)=O)[C@H]4O[C@]342)C1 | 4110 | 1090 | 6440
2 | C[C@]12CC[C@H](O)C[C@H]1CC[C@@H]1[C@@H]2CC[C@]2(C)[C@@H](c3ccc(=O)oc3)C[C@H]3O[C@]132 [BUFOGENIN] | 7890 | > 50000 | > 50000
3 | C[C@]12CC[C@H](O)C[C@H]1CC[C@@H]1[C@@H]2CC[C@]2(C)[C@@H](c3ccc(=O)oc3)CC[C@]12O [BUFALIN] | 990 | 730 | 640
4 | CC(=O)O[C@H]1CC[C@@]2(C)[C@H](CC[C@@H]3[C@@H]2CC[C@]2(C)[C@@H](c4ccc(=O)oc4)[C@@H](OC(C)=O)[C@@H](O)[C@]32O)C1 | 3370 | 450 | 3100
5 | CC(=O)O[C@H]1[C@H]2O[C@]23[C@@H]2CC[C@@H]4C[C@@H](O)CC[C@]4(C)[C@H]2CC[C@]3(C)[C@H]1c1ccc(=O)oc1 [CINOBUFAGIN] | 8500 | 760 | 5200
6 | CC(=O)O[C@H]1CC[C@@]2(C)[C@H](CC[C@@H]3[C@@H]2CC[C@]2(C)[C@@H](c4ccc(=O)oc4)C[C@H]4O[C@]342)C1 | 19800 | > 50000 | > 50000
7 | CC(=O)O[C@H]1C(=O)[C@@]2(C)[C@H]([C@H](OC(=O)c3ccccc3)[C@]3(O)C[C@H](OC(=O)[C@H](O)[C@@H](NC(=O)c4ccccc4)c4ccccc4)C(C)=C1C3(C)C)[C@]1(OC(C)=O)CO[C@@H]1C[C@@H]2O [PACLITAXEL] | 1150 | 20 | 820
8 | CC(=O)O[C@H]1CC[C@@]2(C)[C@H](CC[C@@H]3[C@@H]2CC[C@]2(C)[C@@H](c4ccc(=O)oc4)CC[C@]32O)C1 | 700 | 1140 | 740
